In patent US10144762B2, “Antibacterial antisense oligonucleotide and method” (priority 2005, dated 2018):
Values after ≈ are worked out from the molar mass of the structure shown. Values joined by “and” are separate entries in the source; they are usually repeats but may differ in a detail not shown here. Equal values may be shown once. Read-outs that look alike come from different tables or passages of the source.

Tests used:
[1] = test system: E. coli W3110; assay: E. coli W3110 pure culture, CFU/ml and dose-response; assay type: cell-based
[2] = test system: E. coli W3110; assay: MIC, broth microdilution method of the Clinical and Laboratory Standards Institute; assay type: cell-based; settings: Escherichia coli, read-out: minimum inhibitory concentration (MIC)
[3] = test system: E. coli AS19 (pT7myc-luc); assay type: in vivo; settings: mice; for CFU/ml (×10^6): peritoneal lavage
[4] = test system: luciferase transcript; set-up: species or system firefly; settings: in vivo
[5] = test system: luciferase transcript; assay: Western blot of luciferase protein normalized to OmpA in peritoneal lavage bacteria; assay type: in vivo, firefly; set-up: Western Blot % Inhibition (luciferase protein): concentration or dose not given beside the values; settings: for Western Blot % Inhibition (luciferase protein): compared to nonsense PMO-treated mice; for Western Blot Luc/OmpA Mean: n = 7-8
[6] = test system: E. coli AS19; assay type: cell-based

Row | Molecule | antibacterial activity (CFU/ml after 8 hours) ([1]; E. coli W3110 (FIG. 13)) | IC50 ([1]; Escherichia coli, E. coli W3110 pure culture (FIG. 14), read-out: IC50 (50% inhibitory concentration)) [µM] | MIC [2] [µM] | CFU/ml (×10^6) ([3]; 13 h after treatment) | CFU/ml (×10^6) ([3]; 22 h after treatment) | inhibition of growth compared to nonsense PMO treatment ([3]; treated at 0 and 13 hours post-infection) | Luciferase Activity % Inhibition [4] | Luciferase Activity RLU/CFU Mean [4] | Western Blot % Inhibition (luciferase protein) ([5]; 13 h) [%] | Western Blot Luc/OmpA Mean ([5]; 13 h after treatment) | Western Blot % Inhibition (luciferase protein) ([5]; 22 h) [%] | Western Blot % Inhibition (luciferase protein) ([5]; 22 h, listed as luc PMO) [%] | Western Blot Luc/OmpA Mean ([5]; 22 h after treatment) | growth monitored by optical density [6] | viable cells (CFU/ml) [6]
1 | CC1(C)S[C@@H]2[C@H](NC(=O)[C@H](N)c3ccccc3)C(=O)N2[C@H]1C(=O)O [ampicillin] | showed antibacterial activity | 7.7 | 10 (≈ 3.49 µg/mL) |  |  |  |  |  |  |  |  |  |  |  | 
2 | Luc: PMO complementary to the region around the start codon of the luciferase transcript, ACG TTG AGG C, SEQ ID NO 77 (antisense ACGTTGAGGC; all phosphorodiamidate morpholino (PMO)) |  |  |  | 6.3 ×10^6 CFU/ml | 0.96 ×10^6 CFU/ml | no inhibition of growth | 53% and 46% | 3.20 RLU/CFU and 2.90 RLU/CFU | 68 | 0.122 | 57 | 47 | 0.147 |  | 
3 | Nonsense: nonsense PMO control for luc PMO, TCC ACT TGC C, SEQ ID NO 78 (TCCACTTGCC; all phosphorodiamidate morpholino (PMO)) [reference compound] |  |  |  | 4.3 ×10^6 CFU/ml | 0.39 ×10^6 CFU/ml |  |  | 6.19 RLU/CFU and 8.12* RLU/CFU | 0 | 0.382 | 0 |  | 0.339 |  | 
4 | PMO 62-4: acpP-14mer PMO, TC GAT AGT GCT CAT, SEQ ID NO 65 (antisense TCGATAGTGCTCAT; all phosphorodiamidate morpholino (PMO)) |  |  |  |  |  |  |  |  |  |  |  |  |  | statistically insignificant inhibitions | significantly reduced
